In patent publication US20040197341A1, “Therapeutic process for p. aeruginosa infections using macrolide antibiotics” (priority 2004, published 2004):

How the values were obtained:
P. aeruginosa strains = conditions: clinical trials; cited from earlier work
[1] = system: P. aeruginosa strain PAO1; test: Qualitative rhamnolipid plate assay on M9-based agar with azithromycin gradient; format: cell-based; conditions: gradient from 0 μg/ml to 20 μg/ml in agar
Protocol: P. aeruginosa strain PAO1 was grown on M9-based agar plates (Siegmund, I., Wagner, F., Biotechnol. Tech. 1991, 5, 265-268) into which a gradient of azithromycin from 0 μg/ml to 20 μg/ml was incorporated. The qualitative Rhamnolipid® plate assay was used.

[2] = system: lasR, rhlR, lasI and rhlI genes; test: lacZ reporter fusions of lasR, rhlR, lasI, rhlI, beta-Gal activity; format: cell-based, P. aeruginosa; conditions: 2 μg/ml azithromycin, 10 h
Protocol: Cultures of P. aeruginosa strain PAO1, harbouring the fusion gene of lasR′ with lacZ reporter (pPCS10011; Pesci, E. C., Pearson, J. P., Seed, P. C., Iglewski, B. H., J. Bacteriol. 1997, 179, 3127-3132), or the fusion gene of rhlR′ with lacZ (pPCS1002; ibid.), or the fusion gene of lasI′ with lacZ (pPCS223; Van Delden, C., Pesci, E. C., Pearson, J. P., Iglewski, B. H., Infect. Immun. 1998, 66, 4499-4502), or the fusion gene of rhlI′ with lacZ (pLPRI; ibid.) were grown for 10 h in broth medium either in the absence or presence of 2 μg/ml azithromycin and the β-Gal activity was then determined. The results for lasR and rhlR are shown in FIG. 2a) and for lasI and rhlI in FIG. 2b) (plotted bars are the mean ±SD of 6 individual experiments each).

[3] = system: P. aeruginosa strain PAO1; test: Growth curves (optical density at 660 nm) in the elastase production experiment; format: cell-based; conditions: 2 μg/ml, broth medium, 16 hours
Protocol: P. aeruginosa strain PAO1 was grown over a total of 16 hours in broth medium either without azithromycin or with 2 μg/ml azithromycin. Samples of the supernatants of both cultures were taken in intervals of 4 hours and the activity of elastase in the samples was determined using elastin Congo red assays (Pearson, J. P., Pesci, E. C., Iglewski, B. H., J. Bacteriol. 1997, 179, 5756-5767). The measured elastase activity was plotted against the sampling times, giving FIG. 1b).

C4-HSL = test: Production of C4-HSL autoinducer, specific bioassay of ethyl acetate extracts of supernatants; format: cell-based, P. aeruginosa; conditions: 2 μg/ml, LB medium, 12 hours, strain PAO1
Protocol: (§1) P. aeruginosa strain PAO1 was grown in LB medium for 12 hours either in the absence or presence of 2 μg/ml of azithromycin. The formed 3-oxo-C12—HSL and C4—HSL autoinducers were extracted from the supernatants of both cultures with ethyl acetate and their respective concentrations were measured using specific bioassays (Pearson, J. P., Pesci, E. C., Iglewski, B. H., J. Bacteriol. 1997, 179, 3127-3132; Seed, P. C, Passador, L., Iglewski, B. H., J. Bacteriol. 1995, 177, 654-659). The results are plotted in FIG. 3 a). In the presence of the macrolide the concentrations of 3-oxo-C12-HSL and C4-HSL were reduced by 94 and 72%, respectively.

rhlAB operon = test: rhlA'-lacZ reporter (pECP60) expression of the rhlAB operon, beta-Gal activity, with growth curves; format: cell-based, P. aeruginosa; conditions: 2 μg/ml, LB medium, 16 hours
Protocol: P. aeruginosa strain PAO1, harbouring the fusion gene pECP60 of rhlA′ with the lacZ reporter (Pesci, E. C., Pearson, J. P., Seed, P. C., Iglewski, B. H., J. Bacteriol. 1997, 179, 3127-3132), was grown for 16 hours in LB medium either in the absence or presence of 2 μg/ml azithromycin and the activity of β-galactosidase (β-Gal) (Miller, J. H., “Experiments in Molecular Genetics”, p. 352-355. Cold Spring Harbor Laboratory, Cold Spring Harbor, N.Y.) was measured in both cultures in intervals of 4 hours. The results of 6 experiments (mean±SD) for each culture were plotted against sampling time (FIG. 1c).

3-oxo-C12-HSL = test: Production of 3-oxo-C12-HSL autoinducer, specific bioassay of ethyl acetate extracts of supernatants; format: cell-based, P. aeruginosa; conditions: 2 μg/ml, LB medium, 12 hours, strain PAO1
Protocol: as §1

[4] = in vivo; cited from earlier work
[5] = system: P. aeruginosa strain PAO1; test: Cell growth of P. aeruginosa PAO1 in LB medium (turbidity at 660 nm) and SDS-PAGE of total protein extracts; format: cell-based
Protocol: P. aeruginosa strain PAO1 was grown for a total of 10 hours on Luria-Bertani (LB) medium containing 2, 3, 4 and 5 μg/ml of azithromycin, respectively. The cell growth in the media was measured by optical absorbance measurements (turbidity) at 660 nm in intervals of 2 h.

C4-HSL autoinducer = conditions: 50 μg of erythromycin/ml; cited from earlier work
[6] = 2 μg of azithromycin/ml, LB medium, strain PAO1

CC[C@H]1OC(=O)[C@H](C)[C@@H](O[C@H]2C[C@@](C)(OC)[C@@H](O)[C@H](C)O2)[C@H](C)[C@@H](O[C@@H]2O[C@H](C)C[C@H](N(C)C)[C@H]2O)[C@](C)(OC)C[C@@H](C)C(=O)[C@H](C)[C@@H](O)[C@]1(C)O [clarithromycin]
effect on the viability of the microorganism (P. aeruginosa strains): no effect

CC[C@H]1OC(=O)[C@H](C)[C@@H](O[C@H]2C[C@@](C)(OC)[C@@H](O)[C@H](C)O2)[C@H](C)[C@@H](O[C@@H]2O[C@H](C)C[C@H](N(C)C)[C@H]2O)[C@](C)(O)C[C@@H](C)CN(C)[C@H](C)[C@@H](O)[C@]1(C)O [azithromycin]
growth on rhamnolipid plates [1]: without a parallel drop in growth
production of rhamnolipids [1]: progressively decreased
restoration of lasI expression by co-addition of exogenous autoinducers ([2]; 10 μM exogenous autoinducers): could not restore
effect on lasR and rhlR expression on co-adding exogenous 3-oxo-C12-HSL and C4-HSL ([2]; autoinducers 10 μM each): almost completely compensated
influence on the growth (optical density at 660 nm) [3]: no significant influence
reduction of C4-HSL concentration (C4-HSL): 72%
influence on the growth (optical density at 660 nm) (rhlAB operon): no significant influence
reduction of 3-oxo-C12-HSL concentration (3-oxo-C12-HSL): 94%
distribution between body tissues and serum/plasma [4]: tends to accumulate in body tissues
effect on exponential growth [5, 6]: slightly affected
effect on the stationary growth phase [5, 6]: no effect
inhibition of PAO1 ([5]; in vitro concentration 2 μg/ml): does not inhibit PAO1

CC[C@H]1OC(=O)[C@H](C)[C@@H](O[C@H]2C[C@@](C)(OC)[C@@H](O)[C@H](C)O2)[C@H](C)[C@@H](O[C@@H]2O[C@H](C)C[C@H](N(C)C)[C@H]2O)[C@](C)(O)C[C@@H](C)C(=O)[C@H](C)[C@@H](O)[C@]1(C)O [erythromycin]
autoinducer production (C4-HSL autoinducer): reduction
